Measurements from ChEMBL document CHEMBL1201862, “PubChem BioAssay data set” (2004).
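Following 48 hours of exposure in 96-well plates, responses at five concentrations were used to interpolate endpoints linearly. GI50: concentration for 50% inhibition of growth.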 The source made the active and inactive calls. No stated cut-off is given here; in the data, active = GI50 up to about 1.1 µM and inactive = higher.

Columns and labels:
Assay in all cases: NCI-60 cell line screen, 48 h
[1] = test system: 786-0
[2] = test system: A498
[3] = test system: A549
[4] = test system: ACHN
[5] = test system: CAKI-1
[6] = test system: CCRF-CEM
[7] = test system: COLO 205
[8] = test system: DLD-1
[9] = test system: DMS-273
[10] = test system: EKVX
[11] = test system: HCC 2998
[12] = test system: HCT-116
[13] = test system: HCT-15
[14] = test system: HOP-18
[15] = test system: HOP-62
[16] = test system: HOP-92
[17] = test system: HT-29
[18] = test system: IGROV-1
[19] = test system: K562
[20] = test system: KM-20L2
[21] = test system: KM12
[22] = test system: LOX IMVI
[23] = test system: M14
[24] = test system: M19-MEL
[25] = test system: Malme-3M
[26] = test system: NCI-H226
[27] = test system: NCI-H23
[28] = test system: NCI-H460
[29] = test system: OVCAR-3
[30] = test system: OVCAR-4
[31] = test system: OVCAR-5
[32] = test system: OVCAR-8
[33] = test system: RPMI-8226
[34] = test system: RXF 631
[35] = test system: SF-268
[36] = test system: SF-295
[37] = test system: SF-539
[38] = test system: SK-MEL-28
[39] = test system: SK-MEL-2
[40] = test system: SK-MEL-5
[41] = test system: SK-OV-3
[42] = test system: SN12C
[43] = test system: SNB-19
[44] = test system: SNB-75
[45] = test system: SNB-78
[46] = test system: SW-620
[47] = test system: TK-10
[48] = test system: U-251
[49] = test system: UACC-257
[50] = test system: UACC-62
[51] = test system: UO-31
[52] = test system: DMS-114
[53] = test system: HL-60
[54] = test system: LXFL 529
[55] = test system: MOLT-4
[56] = test system: NCI-H522
[57] = test system: RXF 393
[58] = test system: XF498
[59] = test system: BT-549
[60] = test system: DU-145
[61] = test system: Hs-578T
[62] = test system: MCF7
[63] = test system: MDA-MB-231
[64] = test system: MDA-MB-435
[65] = test system: MDA-N
[66] = test system: NCI/ADR-RES
[67] = test system: PC-3
[68] = test system: SR
[69] = test system: T47D

O=c1c2cc(Br)ccc2[nH]c(=S)n1-c1ccccc1
GI50 [1]: > 100 µM (inactive)
GI50 [2]: > 100 µM (inactive)
GI50 [3]: > 100 µM (inactive)
GI50 [4]: > 100 µM (inactive)
GI50 [5]: > 100 µM (inactive)
GI50 [6]: > 100 µM (inactive)
GI50 [7]: > 100 µM (inactive)
GI50 [8]: > 100 µM (inactive)
GI50 [9]: > 100 µM (inactive)
GI50 [10]: > 100 µM (inactive)
GI50 [11]: > 100 µM (inactive)
GI50 [12]: > 100 µM (inactive)
GI50 [13]: > 100 µM
GI50 [14]: > 100 µM (inactive)
GI50 [15]: > 100 µM (inactive)
GI50 [16]: > 100 µM (inactive)
GI50 [17]: > 100 µM (inactive)
GI50 [18]: > 100 µM (inactive)
GI50 [19]: > 100 µM (inactive)
GI50 [20]: > 100 µM (inactive)
GI50 [21]: > 100 µM (inactive)
GI50 [22]: > 100 µM (inactive)
GI50 [23]: > 100 µM (inactive)
GI50 [24]: > 100 µM (inactive)
GI50 [25]: > 100 µM (inactive)
GI50 [26]: > 100 µM (inactive)
GI50 [27]: > 100 µM (inactive)
GI50 [28]: > 100 µM (inactive)
GI50 [29]: > 100 µM (inactive)
GI50 [30]: > 100 µM (inactive)
GI50 [31]: > 100 µM (inactive)
GI50 [32]: > 100 µM (inactive)
GI50 [33]: > 100 µM (inactive)
GI50 [34]: > 100 µM (inactive)
GI50 [35]: > 100 µM (inactive)
GI50 [36]: > 100 µM (inactive)
GI50 [37]: > 100 µM (inactive)
GI50 [38]: > 100 µM (inactive)
GI50 [39]: > 100 µM (inactive)
GI50 [40]: > 100 µM (inactive)
GI50 [41]: > 100 µM (inactive)
GI50 [42]: > 100 µM (inactive)
GI50 [43]: > 100 µM (inactive)
GI50 [44]: > 100 µM (inactive)
GI50 [45]: > 100 µM (inactive)
GI50 [46]: > 100 µM (inactive)
GI50 [47]: > 100 µM (inactive)
GI50 [48]: > 100 µM (inactive)
GI50 [49]: > 100 µM (inactive)
GI50 [50]: > 100 µM (inactive)
GI50 [51]: > 100 µM (inactive)

CCc1c(C)[nH]c2c1/C(=N/N=C1\CCCc3[nH]c(C)c(CC)c31)CCC2
GI50 [1]: > 100 µM (inactive)
GI50 [2]: 25.6 µM (inactive)
GI50 [3]: 27.9 µM (inactive)
GI50 [4]: 18.6 µM (inactive)
GI50 [5]: 29.4 µM (inactive)
GI50 [6]: 19.2 µM (inactive)
GI50 [7]: 17.9 µM (inactive)
GI50 [8]: > 100 µM (inactive)
GI50 [52]: 14.1 µM (inactive)
GI50 [9]: 17.4 µM (inactive)
GI50 [10]: 33 µM (inactive)
GI50 [11]: > 100 µM (inactive)
GI50 [12]: 16.9 µM (inactive)
GI50 [13]: 19.4 µM
GI50 [53]: 11.9 µM (inactive)
GI50 [15]: > 100 µM (inactive)
GI50 [16]: 14.5 µM (inactive)
GI50 [17]: 27.4 µM (inactive)
GI50 [18]: 20 µM (inactive)
GI50 [19]: 16.7 µM (inactive)
GI50 [20]: 27 µM (inactive)
GI50 [21]: 15.7 µM (inactive)
GI50 [22]: 20.9 µM (inactive)
GI50 [54]: 13.8 µM (inactive)
GI50 [23]: 20.7 µM (inactive)
GI50 [24]: 20.6 µM (inactive)
GI50 [55]: 12.8 µM (inactive)
GI50 [25]: > 100 µM (inactive)
GI50 [26]: 17.6 µM (inactive)
GI50 [27]: 18.5 µM (inactive)
GI50 [28]: 18 µM (inactive)
GI50 [56]: 14.3 µM (inactive)
GI50 [29]: 14.5 µM (inactive)
GI50 [30]: 18.1 µM (inactive)
GI50 [31]: 25.6 µM (inactive)
GI50 [32]: 25.8 µM (inactive)
GI50 [33]: 7.67 µM (inactive)
GI50 [57]: 22.6 µM (inactive)
GI50 [34]: 22.5 µM (inactive)
GI50 [35]: 19.3 µM (inactive)
GI50 [36]: 20.1 µM (inactive)
GI50 [37]: 28.2 µM (inactive)
GI50 [38]: 16.7 µM (inactive)
GI50 [39]: > 100 µM (inactive)
GI50 [40]: 14.2 µM (inactive)
GI50 [41]: 30.8 µM (inactive)
GI50 [42]: 29.2 µM (inactive)
GI50 [43]: 41.4 µM (inactive)
GI50 [44]: 20.8 µM (inactive)
GI50 [45]: 27.4 µM (inactive)
GI50 [46]: 28.5 µM (inactive)
GI50 [47]: 49.1 µM (inactive)
GI50 [48]: 17 µM (inactive)
GI50 [49]: 17.5 µM (inactive)
GI50 [50]: 18.5 µM (inactive)
GI50 [51]: 14.5 µM (inactive)
GI50 [58]: 18.2 µM (inactive)

COC(=O)[C@@]12OC[C@]34[C@H]([C@@H](O)[C@@H]1O)[C@@]1(C)CC(=O)C(O)=C(C)[C@@H]1C[C@H]3OC(=O)[C@H](OC(=O)/C=C(\C)C(C)C)[C@@H]24 [BRUCEANTIN]
GI50 [1]: 0.0292 µM (active)
GI50 [2]: 0.02 µM (active)
GI50 [3]: 0.02 µM (active)
GI50 [4]: 0.0026 µM (active)
GI50 [59]: 20 nM (active)
GI50 [5]: 0.022 µM (active)
GI50 [6]: 0.02 µM (active)
GI50 [7]: 0.0242 µM (active)
GI50 [8]: 0.02 µM (active)
GI50 [60]: 14.2 nM (active)
GI50 [10]: 0.0223 µM (active)
GI50 [12]: 0.02 µM (active)
GI50 [13]: 0.0214 µM
GI50 [14]: 0.0265 µM (active)
GI50 [15]: 0.02 µM (active)
GI50 [16]: 0.0328 µM (active)
GI50 [17]: 0.02 µM (active)
GI50 [61]: 5.53 nM (active)
GI50 [18]: 0.02 µM (active)
GI50 [19]: 0.02 µM (active)
GI50 [20]: 0.02 µM (active)
GI50 [21]: 0.02 µM (active)
GI50 [22]: 0.02 µM (active)
GI50 [54]: 3.5e-05 µM (active)
GI50 [23]: 0.00346 µM (active)
GI50 [24]: 0.02 µM (active)
GI50 [62]: 20 nM (active)
GI50 [63]: 38.4 nM (active)
GI50 [64]: 18.8 nM (active)
GI50 [65]: < 10.1 nM (active)
GI50 [55]: 0.02 µM (active)
GI50 [25]: 0.02 µM (active)
GI50 [26]: 0.02 µM (active)
GI50 [27]: 0.02 µM (active)
GI50 [28]: 0.02 µM (active)
GI50 [66]: 337 nM (active)
GI50 [29]: 0.0247 µM (active)
GI50 [30]: 0.0211 µM (active)
GI50 [31]: 0.0265 µM (active)
GI50 [32]: 0.02 µM (active)
GI50 [67]: 16 nM (active)
GI50 [33]: 0.02 µM (active)
GI50 [57]: 0.0201 µM (active)
GI50 [34]: 0.000314 µM (active)
GI50 [35]: 0.0205 µM (active)
GI50 [36]: 0.02 µM (active)
GI50 [37]: 0.02 µM (active)
GI50 [38]: 0.02 µM (active)
GI50 [39]: 0.0209 µM (active)
GI50 [40]: 0.02 µM (active)
GI50 [41]: 0.02 µM (active)
GI50 [42]: 0.0222 µM (active)
GI50 [43]: 0.02 µM (active)
GI50 [44]: 0.02 µM (active)
GI50 [45]: 0.02 µM (active)
GI50 [68]: 0.00512 µM (active)
GI50 [46]: 0.02 µM (active)
GI50 [69]: 15.3 nM (active)
GI50 [47]: 0.021 µM (active)
GI50 [48]: 0.0242 µM (active)
GI50 [49]: 0.0208 µM (active)
GI50 [50]: 0.02 µM (active)
GI50 [51]: 0.0598 µM (active)
GI50 [58]: 0.02 µM (active)

COc1cc(OC)c(Oc2cccc(OC)c2OC)c(OC)c1
GI50 [1]: > 100 µM (inactive)
GI50 [2]: > 100 µM (inactive)
GI50 [3]: > 100 µM (inactive)
GI50 [4]: > 100 µM (inactive)
GI50 [5]: > 100 µM (inactive)
GI50 [6]: > 100 µM (inactive)
GI50 [7]: > 100 µM (inactive)
GI50 [8]: > 100 µM (inactive)
GI50 [52]: > 100 µM (inactive)
GI50 [9]: > 100 µM (inactive)
GI50 [10]: > 100 µM (inactive)
GI50 [11]: > 100 µM (inactive)
GI50 [12]: > 100 µM (inactive)
GI50 [14]: 29.5 µM (inactive)
GI50 [15]: > 100 µM (inactive)
GI50 [16]: > 100 µM (inactive)
GI50 [17]: > 100 µM (inactive)
GI50 [18]: > 100 µM (inactive)
GI50 [19]: > 100 µM (inactive)
GI50 [20]: > 100 µM (inactive)
GI50 [21]: > 100 µM (inactive)
GI50 [22]: > 100 µM (inactive)
GI50 [54]: > 100 µM (inactive)
GI50 [23]: > 100 µM (inactive)
GI50 [24]: > 100 µM (inactive)
GI50 [55]: > 100 µM (inactive)
GI50 [26]: > 100 µM (inactive)
GI50 [27]: > 100 µM (inactive)
GI50 [28]: > 100 µM (inactive)
GI50 [56]: > 100 µM (inactive)
GI50 [29]: > 100 µM (inactive)
GI50 [30]: > 100 µM (inactive)
GI50 [31]: > 100 µM (inactive)
GI50 [32]: > 100 µM (inactive)
GI50 [35]: > 100 µM (inactive)
GI50 [36]: > 100 µM (inactive)
GI50 [37]: > 100 µM (inactive)
GI50 [38]: > 100 µM (inactive)
GI50 [39]: > 100 µM (inactive)
GI50 [40]: > 100 µM (inactive)
GI50 [41]: > 100 µM (inactive)
GI50 [42]: > 100 µM (inactive)
GI50 [43]: 32.1 µM (inactive)
GI50 [44]: > 100 µM (inactive)
GI50 [45]: > 100 µM (inactive)
GI50 [68]: > 100 µM (inactive)
GI50 [46]: > 100 µM (inactive)
GI50 [47]: > 100 µM (inactive)
GI50 [48]: > 100 µM (inactive)
GI50 [49]: > 100 µM (inactive)
GI50 [50]: > 100 µM (inactive)
GI50 [51]: > 100 µM (inactive)
GI50 [58]: > 100 µM (inactive)
